The molecules below were run against HIS-TGFβR1 T204D (Homo sapiens (Human), UniProt P36897, T204D) (assay: HTRF probe-displacement assay, TGFβR1). Details: GST tagged wild type protein used instead of HIS-tagged protein (starred values).
Format: binding
Method: Em: 520 nm/495 nm). […] Compounds were dissolved at 10 mM in dimethylsulfoxide (DMSO) and evaluated at eleven concentrations. IC50 values were derived by non-linear regression analysis.

HIS-TGFβR1 T204D, sequence (P36897 34-503 T204D): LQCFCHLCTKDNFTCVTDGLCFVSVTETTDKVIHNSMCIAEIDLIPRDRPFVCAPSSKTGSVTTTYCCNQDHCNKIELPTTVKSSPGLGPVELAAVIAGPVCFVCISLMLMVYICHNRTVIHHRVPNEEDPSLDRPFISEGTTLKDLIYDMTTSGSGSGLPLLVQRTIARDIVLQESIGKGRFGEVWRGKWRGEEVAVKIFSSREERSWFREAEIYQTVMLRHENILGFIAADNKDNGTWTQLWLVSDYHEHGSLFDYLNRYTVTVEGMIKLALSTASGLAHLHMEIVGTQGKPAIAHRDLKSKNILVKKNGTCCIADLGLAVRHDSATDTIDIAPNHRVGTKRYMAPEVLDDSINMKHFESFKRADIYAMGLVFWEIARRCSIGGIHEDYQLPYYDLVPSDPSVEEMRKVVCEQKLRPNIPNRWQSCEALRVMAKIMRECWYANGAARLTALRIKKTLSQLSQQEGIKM

IC50	SMILES
18 nM	Cc1ccc(F)c(-c2nc(-n3ccc4cnccc43)c3cccn3n2)n1 [Example 4, 3-fluoro-6-methyl-2-(4-{1H-pyrrolo[3,2-c]pyridin-1-yl}pyrrolo[2,1-f][1,2,4]triazin-2-yl)pyridine]
280 nM	Cc1cccc(-c2nc(Nc3ccnc4ccc(Br)cc34)c3cccn3n2)n1 [Example 12, 6-bromo-N-[2-(6-methylpyridin-2-yl)pyrrolo[2,1-f][1,2,4]triazin-4-yl]quinolin-4-amine]
940 nM	Cc1cccc(-c2nc(Nc3ccnc4ccc(C(F)(F)F)cc34)c3cccn3n2)n1 [Example 16, N-[2-(6-methylpyridin-2-yl)pyrrolo[2,1-f][1,2,4]triazin-4-yl]-6-(trifluoromethyl)quinolin-4-amine]
33 nM	CS(=O)(=O)Nc1cccc(-c2nc(-n3ccc4cnccc43)c3cccn3n2)n1 [Example 25, N-[6-(4-{1H-pyrrolo[3,2-c]pyridin-1-yl}pyrrolo[2,1-f][1,2,4]triazin-2-yl)pyridin-2-yl]methanesulfonamide]

Same assay, conditions: HIS-TGFβR1 T204D, 1 nM; 1 hour at room temperature

IC50	SMILES
20 nM	FC(F)(F)c1cccc(-c2nc(Nc3ccnc4cccnc34)c3cccn3n2)n1 [Example 2, N-{2-[6-(trifluoromethyl)pyridin-2-yl]pyrrolo[2,1-f][1,2,4]triazin-4-yl}-1,5-naphthyridin-4-amine]
13000 nM	COc1cccc(-c2nc(Nc3ccc4ncccc4c3)c3cccn3n2)n1 [Example 3, N-(2-(6-methoxypyridin-2-yl)pyrrolo[2,1-f][1,2,4]triazin-4-yl)quinolin-6-amine]
0.96 nM	Cc1cccc(-c2nc(-n3ccc4cnccc43)c3cccn3n2)n1 [Example 5, 2-methyl-6-(4-{1H-pyrrolo[3,2-c]pyridin-1-yl}pyrrolo[2,1-f][1,2,4]triazin-2-yl)pyridine]
1.4 nM	Fc1cccc(-c2nc(-n3ccc4cnccc43)c3cccn3n2)n1 [Example 6, 2-fluoro-6-(4-{1H-pyrrolo[3,2-c]pyridin-1-yl}pyrrolo[2,1-f][1,2,4]triazin-2-yl)pyridine]
240 nM	Cn1cnc2ccc(Nc3nc(-c4ccccn4)nn4cccc34)cc21 [Example 7, 1-methyl-N-[2-(pyridin-2-yl)pyrrolo[2,1-f][1,2,4]triazin-4-yl]-1H-1,3-benzodiazol-6-amine]
1.1 nM	c1ccc(-c2nc(-n3ccc4cnccc43)c3cccn3n2)nc1 [Example 8, 2-(4-{1H-pyrrolo[3,2-c]pyridin-1-yl}pyrrolo[2,1-f][1,2,4]triazin-2-yl)pyridine]
5.1 nM	c1ccc(-c2nc(-n3cnc4cnccc43)c3cccn3n2)nc1 [Example 9, 2-(4-{1H-imidazo[4,5-c]pyridin-1-yl}pyrrolo[2,1-f][1,2,4]triazin-2-yl)pyridine]
310 nM	c1ccc(-c2nc(-n3ccc4ccncc43)c3cccn3n2)nc1 [Example 10, 2-(4-{1H-pyrrolo[2,3-c]pyridin-1-yl}pyrrolo[2,1-f][1,2,4]triazin-2-yl)pyridine]
6.4 nM	COc1ccc2nccc(Nc3nc(-c4cccc(C)n4)nn4cccc34)c2c1 [Example 11, 6-methoxy-N-[2-(6-methylpyridin-2-yl)pyrrolo[2,1-f][1,2,4]triazin-4-yl]quinolin-4-amine]
1.1 nM	COc1ccc2c(Nc3nc(-c4cccc(C)n4)nn4cccc34)ccnc2c1 [Example 13, 7-methoxy-N-[2-(6-methylpyridin-2-yl)pyrrolo[2,1-f][1,2,4]triazin-4-yl]quinolin-4-amine]
6.6 nM	Cc1cccc(-c2nc(Nc3ccnc4ccc(F)cc34)c3cccn3n2)n1 [Example 14, 6-fluoro-N-[2-(6-methylpyridin-2-yl)pyrrolo[2,1-f][1,2,4]triazin-4-yl]quinolin-4-amine]
4.7 nM	Cc1cccc(-c2nc(Nc3ccnc4ccc(Cl)cc34)c3cccn3n2)n1 [Example 15, 6-chloro-N-[2-(6-methylpyridin-2-yl)pyrrolo[2,1-f][1,2,4]triazin-4-yl]quinolin-4-amine]
1.4 nM	Cc1cccc(-c2nc(Nc3ccnc4cc(C(F)(F)F)ccc34)c3cccn3n2)n1 [Example 17, N-[2-(6-methylpyridin-2-yl)pyrrolo[2,1-f][1,2,4]triazin-4-yl]-7-(trifluoromethyl)quinolin-4-amine]
4.4 nM	Cc1cccc(-c2nc(Nc3ccnc4ccncc34)c3cccn3n2)n1 [Example 18, N-[2-(6-methylpyridin-2-yl)pyrrolo[2,1-f][1,2,4]triazin-4-yl]-1,6-naphthyridin-4-amine]
5.1 nM	Cc1cccc(-c2nc(Nc3ccnc4cccnc34)c3cccn3n2)n1 [Example 19, N-[2-(6-methylpyridin-2-yl)pyrrolo[2,1-f][1,2,4]triazin-4-yl]-1,5-naphthyridin-4-amine]
4.2 nM	COc1ccc2c(Nc3nc(-c4cccc(C(F)(F)F)n4)nn4cccc34)ccnc2c1 [Example 20, 7-methoxy-N-{2-[6-(trifluoromethyl)pyridin-2-yl]pyrrolo[2,1-f][1,2,4]triazin-4-yl}quinolin-4-amine]
1.8 nM	COc1ccc2c(Nc3nc(-c4cccc(C(F)F)n4)nn4cccc34)ccnc2c1 [Example 21, N-{2-[6-(difluoromethyl)pyridin-2-yl]pyrrolo[2,1-f][1,2,4]triazin-4-yl}-7-methoxyquinolin-4-amine]
5.8 nM	FC(F)c1cccc(-c2nc(Nc3ccnc4cccnc34)c3cccn3n2)n1 [Example 22, N-{2-[6-(difluoromethyl)pyridin-2-yl]pyrrolo[2,1-f][1,2,4]triazin-4-yl}-1,5-napthyridin-4-amine]
1.3 nM	Cc1nc(-c2nc(-n3ccc4cnccc43)c3cccn3n2)ccc1F [Example 23, 3-fluoro-2-methyl-6-(4-{1H-pyrrolo[3,2-c]pyridin-1-yl}pyrrolo[2,1-f][1,2,4]triazin-2-yl)pyridine]
10 nM	COc1cccc(-c2nc(-n3ccc4cnccc43)c3c(Cl)ccn3n2)n1 [Example 24, 2-(5-chloro-4-{1H-pyrrolo[3,2-c]pyridin-1-yl}pyrrolo[2,1-f][1,2,4]triazin-2-yl)-6-methoxypyridine]
1.2 nM	CCc1cccc(-c2nc(-n3ccc4cnccc43)c3cccn3n2)n1 [Example 26, 2-ethyl-6-(4-{1H-pyrrolo[3,2-c]pyridin-1-yl}pyrrolo[2,1-f][1,2,4]triazin-2-yl)pyridine]
1.3 nM	c1cc(-c2nc(-n3ccc4cnccc43)c3cccn3n2)nc(C2CC2)c1 [Example 27, 2-cyclopropyl-6-(4-{1H-pyrrolo[3,2-c]pyridin-1-yl}pyrrolo[2,1-f][1,2,4]triazin-2-yl)pyridine]
3.8 nM	FC(F)(F)c1cccc(-c2nc(-n3ccc4cnccc43)c3cccn3n2)n1 [Example 28, 2-(4-{1H-pyrrolo[3,2-c]pyridin-1-yl}pyrrolo[2,1-f][1,2,4]triazin-2-yl)-6-(trifluoromethyl)pyridine]
2.9 nM	FC(F)c1cccc(-c2nc(-n3ccc4cnccc43)c3cccn3n2)n1 [Example 29, 2-(difluoromethyl)-6-(4-{1H-pyrrolo[3,2-c]pyridin-1-yl}pyrrolo[2,1-f][1,2,4]triazin-2-yl)pyridine]
67 nM	COc1cccc(-c2nc(-n3ncc4cnccc43)c3cccn3n2)n1 [Example 30, 2-methoxy-6-(4-{1H-pyrazolo[4,3-c]pyridin-1-yl}pyrrolo[2,1-f][1,2,4]triazin-2-yl)pyridine]
4.7 nM	Clc1cccc(-c2nc(-n3ccc4cnccc43)c3cccn3n2)n1 [Example 31, 2-chloro-6-(4-{1H-pyrrolo[3,2-c]pyridin-1}-ylpyrrolo[2,1-f][1,2,4]triazin-2-yl)pyridine]
6.2 nM	COc1cccc(-c2nc(-n3ccc4cnccc43)c3cccn3n2)n1 [Example 32, 2-methoxy-6-(4-{1H-pyrrolo[3,2-c]pyridin-1-yl}pyrrolo[2,1-f][1,2,4]triazin-2-yl)pyridine]
12 nM	Cc1ccc(-c2nc(-n3ccc4cnccc43)c3cccn3n2)nc1 [Example 34, 5-methyl-2-(4-{1H-pyrrolo[3,2-c]pyridin-1-yl}pyrrolo[2,1-f][1,2,4]triazin-2-yl)pyridine]
2.2 nM	CSc1nccc(-c2nc(-n3ccc4cnccc43)c3cccn3n2)n1 [Example 35, 2-(methylsulfanyl)-4-(4-{1H-pyrrolo[3,2-c]pyridin-1-yl}pyrrolo[2,1-f][1,2,4]triazin-2-yl)pyrimidine]
1.5 nM	Cc1cccc(-c2nc(Nc3ccc4[nH]ncc4c3)c3cccn3n2)n1 [Example 36, N-[2-(6-methylpyridin-2-yl)pyrrolo[2,1-f][1,2,4]triazin-4-yl]-1H-indazol-5-amine]
